Experiments:
[1] = system: H1299 cells; assay: TGF-β1-induced EMT experiment (morphology), H1299 cells; format: cell-based, human; settings: TGF-β1-treated NatD knockdown H1299 cells
From the text: Fig. 4 Silencing NatD suppresses cancer cell EMT by downregulating Slug. a Representative phase contrast images of Scr and NatD-KD H1299 cells treated with TGF-β1. Data are representative of three independent experiments. Scale bar, 100 μm. b Quantitative real-time PCR analysis of mRNA levels of indicated key EMT-related genes in Scr and NatD-KD H1299 cells normalized to GAPDH in the absence or presence of TGF-β1. Results are shown as mean ± s.d. of three independent experiments. Two-tailed Student’s t-test was used. **P < 0.01 or *P < 0.05 compared with the indicated control. c Western blot analysis of indicated protein levels in Scr and NatD-KD H1299 cells in the absence or presence of TGF-β1. GAPDH served as a loading control. Data are representative of three independent experiments. d Immunofluorescence analysis of Scr and NatD-KD H1299 cells in the absence or presence of TGF-β1 stained for E-cadherin and N-cadherin. […] (bottom panels) Cells were counted in at least four random microscope fields (×100 magnification) for the corresponding assays; migration and invasion are expressed as a percentage of control. […] Two-tailed Student’s t-test was used. **P < 0.01 compared with the indicated control. g Quantitative real-time PCR analysis of the mRNA levels of NatD and indicated key EMT-related genes (normalized to GAPDH) in Scr cells, NatD-KD cells, and NatD-KD + Slug cells. […]

[2] = system: LLC cells; assay: Transwell migration and invasion assay, LLC cells; format: cell-based, murine; settings: LLC cells in vitro, vs Scr
[3] = system: LLC cells; assay: Orthotopic implantation in C57BL/6 mice, LLC cells; format: in vivo, murine; settings: pleural cavity, 14 days, n = 5, vs Scr
Procedure: All animal care and handling procedures were performed in accordance with the National Institutes of Health Guide for the Care and Use of Laboratory Animals, and were approved by the Institutional Review Board of Nanjing University (Nanjing, China). Female SCID mice and C57BL/6 mice (6–8 week old) were purchased from the Model Animal Research Center of Nanjing University (Nanjing, China), and were maintained under specific pathogen-free conditions at Nanjing University. The sample size was chosen with adequate power on the basis of the literature and our previous experience[46] and for each experiment it is indicated in the figure legend. Prior to carrying out the experiment, mice were randomly assigned to two different treatment groups (NatD-KD or Scr). For xenograft studies, 1 × 10^6 cells were resuspended in 100 µl PBS and injected into the lateral tail vein. Lung nodules and progression were monitored and quantified using the bioluminescence system (Caliper IVIS Lumina XR) or by counting under a dissecting microscope. […] Mice were killed at day 28 or day 30 to collect lungs, and lung nodules in serial sections were quantified microscopically. […] Lung nodules and progression were monitored and quantified using the bioluminescence system (Caliper IVIS Lumina XR). Mice were killed at day 14 or day 21 to collect lungs, and lung nodules in serial sections were quantified microscopically. […]

[4] = system: H1299 cells; assay: Apoptosis and cell cycle by flow cytometry, H1299 cells; format: cell-based, human; settings: vs Scr
Procedure: The in vitro viability of H1299 cells was assessed using the Cell Counting Kit-8 (CCK-8, Dojindo, Japan) according to the manufacturer’s protocol. Flow cytometric analysis of apoptosis was assessed by Annexin V and PI staining using the Annexin V-APC Apoptosis Detection Kit (KeyGEN BioTECH, China) according to the manufacturer’s guide. For cell cycle analysis, cells were harvested and fixed at 4 °C overnight with 70% ethanol. Cells were washed twice with PBS, and their DNA was stained using a Cell Cycle Detection Kit (KeyGEN BioTECH, China). The samples were analyzed by flow cytometry (Becton Dickinson, NJ, USA), and results were analyzed with FlowJo software according to the manufacturer’s instructions. For the wound healing assay, cells were plated to confluence in a 6-well plate, and the cell monolayer was scratched using a pipette tip. Representative photos were taken using a digital camera mounted on an inverted microscope (Olympus) at indicated times. Live cell imaging was performed using the HoloMonitor M4 time-lapse cytometer (Phase Holographic Imaging, Sweden). […]
Supplementary Figure 1. […] (b and c) Representative images from three independent experiments of apoptosis (b) and cell cycle analysis (c) of Scr and NatD-KD H1299 cells analyzed by flow cytometry. […]

“NatD-KD2: Human NatD shRNA KD2: 5′-GGTTGAATGTCTCCATTGA-3′, lentiviral (shRNA lentiviral)” was tested. Which “morphology on TGF-β1 treatment, NatD knockdown cells” value [1] did it give?
Its value is “mostly retained their rounded epithelial morphology”.

And the “migratory and invasive capabilities” value [2]?
Its value is “significantly decreased”.

And the “migration and invasion, orthotopic model” value [3]?
The value was “significantly reduced”.

And the “numbers of apoptotic cells or cell cycle” value [4]?
The value was “no difference”.

— paper PMC5640650, “NatD promotes lung cancer progression by preventing histone H4 serine phosphorylation to activate Slug expression” (Nature Communications, 2017)
